In ChEMBL document CHEMBL1155491, “Acylurea connected straight chain hydroxamates as novel histone deacetylase inhibitors: Synthesis, SAR, and in vivo antitumor activity” (Bioorg Med Chem Lett, 2010):
Converted amounts (≈) assume the structure as drawn. The source made the active and inactive calls. The rule behind the calls is not given here.

Legend:
Histone deacetylase 1 [1] = molecular target: T1, Histone deacetylase 1 (Homo sapiens, UniProt Q13547)
Histone deacetylase 1 [2] = molecular target: T1, Histone deacetylase 1; remark: listed apart in the source
Histone deacetylase 8 = molecular target: T2, Histone deacetylase 8 (Homo sapiens, UniProt Q9BY41); assay: Inhibition of HDAC8
T2 sequence (Q9BY41 whole entry): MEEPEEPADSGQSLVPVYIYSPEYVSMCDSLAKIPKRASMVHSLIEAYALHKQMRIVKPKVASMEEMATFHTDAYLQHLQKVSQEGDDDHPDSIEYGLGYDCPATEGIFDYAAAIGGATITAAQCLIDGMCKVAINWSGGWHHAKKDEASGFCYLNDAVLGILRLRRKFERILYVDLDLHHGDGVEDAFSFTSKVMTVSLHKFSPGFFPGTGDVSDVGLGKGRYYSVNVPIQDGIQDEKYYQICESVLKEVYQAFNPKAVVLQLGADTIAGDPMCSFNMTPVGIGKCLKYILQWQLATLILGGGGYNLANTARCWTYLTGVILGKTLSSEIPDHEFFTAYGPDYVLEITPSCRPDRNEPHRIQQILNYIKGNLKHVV

[3] = Solubility at pH 7; assay type: physicochemical; conditions: buffer
Histone deacetylase 1 [4] = molecular target: T1, Histone deacetylase 1; assay: Inhibition of HDAC1 in human COLO205 cells assessed as induction of histone H3 acetylation at 10 uM by Western-immuno blotting; assay type: cell-based; conditions: COLO 205
HCT-116 [5] = assay: Antitumor activity against human HCT116 cells xenografted in BALB/c mouse at 200 mg/kg, po after 21 days; assay type: functional, organism-based; parameters: dose 200 mg/kg
[6] = Octanol-water distribution coefficient, log D of the compound; assay type: physicochemical
[7] = Toxicity in human PC3 cells xenografted nude mouse; assay type: organism-based, PC-3; conditions: in vivo
[8] = Thermodynamic solubility at pH 7.4; assay type: physicochemical; conditions: buffer, read-out: Therm_solubility
[9] = Oral bioavailability in mouse at 50 mg/kg, po; conditions: in vivo
[10] = Half life in human liver microsome; assay type: ADME; conditions: liver microsomes
[11] = Clearance in mouse at 10 mg/kg, iv; assay type: ADME, organism-based; parameters: dose 10 mg/kg, route intravenous; conditions: in vivo
[12] = Volume of distribution at steady state in mouse at 10 mg/kg, iv; assay type: ADME, organism-based; parameters: dose 10 mg/kg, route intravenous; conditions: in vivo, read-out: Vdss
[13] = Half life in mouse liver microsome; assay type: ADME; conditions: liver microsomes
[14] = Apparent permeability from apical to basolateral side of Caco-2 cells; assay type: ADME, cell-based; conditions: human
[15] = Half life in rat liver microsome; assay type: ADME; conditions: liver microsomes
[16] = Elimination half life in mouse at 10 mg/kg, iv; assay type: ADME, organism-based; parameters: dose 10 mg/kg, route intravenous; conditions: in vivo, read-out: beta t1/2 (converted)
PC-3 = assay: Antiproliferative activity against human PC3 cells; assay type: functional, cell-based
HCT-116 [17] = assay: Antiproliferative activity against human HCT116 cells; assay type: functional, cell-based
A2780 = assay: Antiproliferative activity against human A2780 cells; assay type: functional, cell-based

T1 sequence (Q13547 whole entry): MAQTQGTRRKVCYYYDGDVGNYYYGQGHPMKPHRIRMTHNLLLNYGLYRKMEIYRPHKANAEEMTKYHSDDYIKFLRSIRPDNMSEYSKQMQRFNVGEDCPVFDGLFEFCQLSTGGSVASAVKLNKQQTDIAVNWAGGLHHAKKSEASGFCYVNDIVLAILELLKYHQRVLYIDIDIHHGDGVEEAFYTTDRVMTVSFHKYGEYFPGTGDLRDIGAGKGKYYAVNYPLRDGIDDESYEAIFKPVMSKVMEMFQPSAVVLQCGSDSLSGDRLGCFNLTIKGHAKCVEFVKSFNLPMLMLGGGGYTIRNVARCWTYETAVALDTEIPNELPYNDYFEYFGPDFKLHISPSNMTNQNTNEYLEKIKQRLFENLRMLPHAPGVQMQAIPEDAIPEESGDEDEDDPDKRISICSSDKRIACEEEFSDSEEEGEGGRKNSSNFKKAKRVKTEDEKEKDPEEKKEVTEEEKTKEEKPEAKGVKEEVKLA

| Compound | IC50 (Histone deacetylase 1 [1]) | IC50 (Histone deacetylase 1 [2]) | further results |
| --- | --- | --- | --- |
| CC(C)(C)c1ccc(C(=O)NC(=O)NCCCCCC(=O)NO)cc1 | 2350 nM | 24 nM |  |
| O=C(CCCCCNC(=O)NC(=O)c1ccc(Cl)cc1)NO | 1600 nM | 26 nM |  |
| O=C(CCCCCCC(=O)Nc1ccccc1)NO [VORINOSTAT] |  |  | Activity (HCT-116 [5]): Active; logD [6]: 1.04; solubility [3]: > 250 µM; MTD [7]: 160 mg/kg; solubility thermodynamic [8]: 166 µg/mL (≈ 628 µM); bioavailability [9]: 8.3%; half-life [10]: > 60 min; clearance [11]: 112 mL/min/kg; Vd [12]: 0.81 L/kg; half-life [13]: > 30 min; Papp A→B [14]: 1.7 ×10⁻⁶ cm/s; half-life [15]: > 30 min; half-life [16]: 22.8 min |
| O=C(CCCNC(=O)NC(=O)c1ccccc1)NO |  | > 10000 nM | IC50 (Histone deacetylase 8): > 10000 nM |
| O=C(CCCCCNC(=O)NC(=O)c1ccc(F)cc1)NO | 2550 nM | 115 nM |  |
| O=C(CCCCCNC(=O)NC(=O)c1cccc([N+](=O)[O-])c1)NO | 2800 nM | 92 nM |  |
| CCN(CC)CCNc1ccc(C(=O)NC(=O)NCCCCCC(=O)NO)cc1[N+](=O)[O-] | 1700 nM | 20 nM |  |
| O=C(CCCCCNC(=O)NC(=O)c1ccc(I)cc1)NO | 870 nM | 8 nM |  |
| Nc1cc(C(=O)NC(=O)NCCCCCC(=O)NO)ccc1Cl | 1250 nM | 11 nM |  |
| O=C(CCCCCNC(=O)NC(=O)c1cccc(Br)c1)NO | 3150 nM | 60 nM |  |
| O=C(CCCCCNC(=O)NC(=O)c1ccc([N+](=O)[O-])cc1)NO | 2310 nM | 45 nM | Activity (Histone deacetylase 1 [4]): Active |
| O=C(CCCCCN(CCCc1ccccc1)C(=O)NC(=O)c1ccccc1)NO |  | 392 nM | IC50 (Histone deacetylase 8): 328 nM |
| O=C(CCCCCN(Cc1ccccc1)C(=O)NC(=O)c1ccccc1)NO | 3190 nM | 355 nM | Activity (Histone deacetylase 1 [4]): Active |
| O=C(CCCCCN(Cc1ccccn1)C(=O)NC(=O)c1ccccc1)NO | 14700 nM | 245 nM |  |
| O=C(CCCCCCN(Cc1ccccn1)C(=O)NC(=O)c1ccccc1)NO | 9060 nM | 555 nM |  |
| O=C(CCCCCCN(Cc1ccccc1)C(=O)NC(=O)c1ccccc1)NO |  | 1600 nM |  |
| O=C(CCCCCNC(=O)NC(=O)c1c(Cl)cccc1Cl)NO | 2950 nM | 185 nM |  |

Second part, led by results:

| IC50 (Histone deacetylase 1 [1]) | IC50 (Histone deacetylase 1 [2]) | Compound | further results |
| --- | --- | --- | --- |
| 19500 nM | 49 nM | CN(C)CCn1cnc2cc(C(=O)NC(=O)NCCCCCC(=O)NO)ccc21 |  |
| 5100 nM | 21 nM | CCN(CC)CCn1cnc2cc(C(=O)NC(=O)NCCCCCC(=O)NO)ccc21 |  |
| 8280 nM |  | O=C(CCCCCCCNC(=O)NC(=O)c1ccccc1)NO | IC50 (Histone deacetylase 8): 405 nM |
| 13200 nM | 44 nM | O=C(CCCCCNC(=O)NC(=O)c1ccc(NC(=O)Cc2ccccc2)cc1)NO | solubility [3]: 28 µM (≈ 11.9 µg/mL); Activity (Histone deacetylase 1 [4]): Active |
| 12000 nM | 55 nM | O=C(CCCCCNC(=O)NC(=O)c1ccc(N2CCOCC2)c([N+](=O)[O-])c1)NO |  |
| 9700 nM | 25 nM | O=C(CCCCCNC(=O)NC(=O)c1ccc2c(c1)ncn2CCc1ccccc1)NO |  |
| 3450 nM | 20 nM | O=C(CCCCCNC(=O)NC(=O)c1ccc(N2CCCC2)c([N+](=O)[O-])c1)NO |  |
| 10000 nM | 26 nM | O=C(CCCCCNC(=O)NC(=O)c1ccc(-c2cncnc2)cc1)NO | solubility [3]: 17 µM (≈ 6.31 µg/mL); half-life [10]: > 30 min; Activity (Histone deacetylase 1 [4]): Active |
| 2910 nM | 22 nM | CCCCc1nc2cc(C(=O)NC(=O)NCCCCCC(=O)NO)ccc2n1CCN1CCCC1 | IC50 (PC-3): 1250 nM; solubility [3]: > 211 µM; IC50 (HCT-116 [17]): 3520 nM; half-life [10]: > 30 min; IC50 (A2780): 1350 nM; Activity (Histone deacetylase 1 [4]): Active |
| 2420 nM | 22 nM | O=C(CCCCCNC(=O)NC(=O)c1ccc(NCCN2CCCC2)c([N+](=O)[O-])c1)NO | IC50 (PC-3): 920 nM; solubility [3]: > 205 µM; IC50 (HCT-116 [17]): 1330 nM; half-life [10]: > 30 min; IC50 (A2780): 990 nM; Activity (Histone deacetylase 1 [4]): Active |
| > 100000 nM | 97 nM | O=C(CCCCCNC(=O)NC(=O)c1ccc(NS(=O)(=O)c2ccccc2)cc1)NO |  |
| 2150 nM | 6 nM | O=C(CCCCCNC(=O)NC(=O)c1ccc2ccccc2c1)NO |  |
| 3700 nM | 20 nM | CN(C)CC(C)(C)Cn1cnc2cc(C(=O)NC(=O)NCCCCCC(=O)NO)ccc21 |  |
| 3750 nM | 20 nM | O=C(CCCCCNC(=O)NC(=O)c1ccc2c(c1)ncn2CCCc1ccccc1)NO |  |
| 2680 nM | 145 nM | O=C(CCCCCCNC(=O)NC(=O)c1ccccc1)NO | Activity (Histone deacetylase 1 [4]): Active |
| 11500 nM | 43 nM | CN1CCN(c2ccc(C(=O)NC(=O)NCCCCCC(=O)NO)cc2[N+](=O)[O-])CC1 |  |
| 3250 nM | 46 nM | O=C(CCCCCNC(=O)NC(=O)c1ccc(N2CCCCC2)c([N+](=O)[O-])c1)NO |  |
| 5380 nM | 34 nM | O=C(CCCCCNC(=O)NC(=O)c1ccc2c(c1)nc(CCc1ccccc1)n2CCN1CCCC1)NO | solubility [3]: > 250 µM; half-life [10]: 21 min; Activity (Histone deacetylase 1 [4]): Active |
